From patent US8691990B2, “6-heterocyclic imidazo[1,2-α]pyridine-2-carboxamide derivatives, preparation and therapeutic use thereof” (Sanofi, priority 2008, dated 2014)
Where a name gives a salt, the structure may show the parent alone.

What follows are molecules tested against T1, murine Nurr 1 receptor (Mus musculus, UniProt Q06219) (assay: In vitro activity on N2A cells (NBRE-luciferase reporter gene)). Conditions: N2A cell line endogenously expressing Nurr 1, stably transfected with 8NBRE-luciferase; products incubated 24 hours.
T1 construct: a cell line (N2A) endogenously expressing the murine Nurr 1 receptor; host or cells: Neuro-2A (N2A) mouse neuroblastoma cells stably transfected with 8NBRE-luciferase
T1 sequence (Q06219 whole entry): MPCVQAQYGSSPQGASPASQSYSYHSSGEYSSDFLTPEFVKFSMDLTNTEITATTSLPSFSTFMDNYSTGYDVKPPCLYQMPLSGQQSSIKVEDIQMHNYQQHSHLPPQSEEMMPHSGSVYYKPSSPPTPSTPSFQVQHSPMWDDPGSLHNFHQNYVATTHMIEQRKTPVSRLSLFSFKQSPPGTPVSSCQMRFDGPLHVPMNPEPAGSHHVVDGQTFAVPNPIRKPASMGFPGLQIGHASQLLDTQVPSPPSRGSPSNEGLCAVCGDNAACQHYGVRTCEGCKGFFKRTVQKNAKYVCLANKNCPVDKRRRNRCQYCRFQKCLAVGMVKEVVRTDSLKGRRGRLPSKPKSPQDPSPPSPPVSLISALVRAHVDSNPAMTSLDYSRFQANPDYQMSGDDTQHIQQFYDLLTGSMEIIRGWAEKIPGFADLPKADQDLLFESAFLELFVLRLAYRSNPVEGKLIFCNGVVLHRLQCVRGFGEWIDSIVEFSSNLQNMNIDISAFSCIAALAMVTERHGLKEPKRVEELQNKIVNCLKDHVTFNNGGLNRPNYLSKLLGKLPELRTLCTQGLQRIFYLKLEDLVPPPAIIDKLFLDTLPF
Assay type: cell-based
Procedure: Evaluation of the In Vitro Activity on N2A Cells
The activity of the compounds according to the invention was evaluated on a cell line (N2A) endogenously expressing the murine Nurr 1 receptor and stably transfected with the NOT binding response element (NBRE) coupled to the luciferase reporter gene. The EC50 values are between 0.01 and 1000 nM. The tests were performed according to the procedure described hereinbelow.
The cell line Neuro-2A is obtained from a standard commercial source (ATCC). The clone Neuro-2A was obtained from a spontaneous tumour originating from a strain of albino mice A by R. J Klebe et al. This line Neuro-2A is then stably transfected with 8NBRE-luciferase. The N2A-8NBRE cells are cultured to the point of confluence in 75 cm^2 culture flasks containing DMEM supplemented with 10% foetal calf serum, 4.5 g/L of glucose and 0.4 mg/ml of geneticin. After culturing for one week, the cells are recovered with 0.25% trypsin for 30 seconds and then resuspended in DMEM without phenol red, containing 4.5 g/L of glucose and 10% Hyclone defatted serum, and placed in white, transparent-based 96-well plates. The cells are deposited at a rate of 60 000 per well in 75 μL for 24 hours before adding the products. The products are applied in 25 μL and incubated for a further 24 hours. On the day of measurement, an equivalent volume (100 μL) of Steadylite is added to each well, and the wells are then left for 30 minutes to obtain complete lysis of the cells and maximum production of the signal. The plates are then measured in a microplate luminescence counter, after having been sealed with an adhesive film. The products are prepared in the form of a 10^−2 M stock solution, and then diluted in 100% of DMSO. Each concentration of product is prediluted in culture medium before incubation with the cells thus containing 0.625% final of DMSO.

Row | Compound | EC50 [nM]
1 | O=C(Nc1ccccc1)c1cn2cc(-c3ccccn3)ccc2n1 [Compound 3, N-Phenyl-6-(pyrid-2-yl)imidazo[1,2-a]pyridine-2-carboxamide] | 0.9
2 | O=C(Nc1ccccc1)c1cn2cc(C3=NCCN3)ccc2n1 [Compound 17, 6-(4,5-Dihydro-1H-imidazol-2-yl)-N-phenylimidazo[1,2-a]pyridine-2-carboxamide hydrochlorides (1:1) and (1:2)] | 26.8
3 | O=C(Nc1cc(F)cc(F)c1)c1cn2cc(-c3ccoc3)ccc2n1 [Compound 24, N-(3,5-Difluorophenyl)-6-(furan-3-yl)imidazo[1,2-a]pyridine-2-carboxamide] | 0.9
4 | O=C(Nc1ccccc1)c1cn2cc(-c3cn[nH]c3)ccc2n1 [Compound 29, N-Phenyl-6-(1H-pyrazol-4-yl)imidazo[1,2-a]pyridine-2-carboxamide] | 1.1

Continued, values first:

Row | EC50 [nM] | Compound
5 | 1.2 | O=C(Nc1cccc(F)c1F)c1cn2cc(-c3ccccn3)ccc2n1 [Compound 45, N-(2,3-Difluorophenyl)-6-(pyrid-2-yl)imidazo[1,2-a]pyridine-2-carboxamide]
6 | 0.4 | O=C(Nc1cccc(F)c1)c1cn2cc(-c3nc[nH]n3)ccc2n1 [Compound 53, N-(3-Fluorophenyl)-6-(1H-1,2,4-triazol-3-yl)imidazo[1,2-a]pyridine-2-carboxamide]
